# In US20090221642A1, “MUSCARINIC RECEPTOR AGONISTS, COMPOSITIONS, METHODS OF TREATMENT THEREOF, AND PROCESSES FOR PREPARATION THEREOF-176” (AstraZeneca AB, priority 2008, published 2009):
# Target: T1, cloned human M2 receptor (human Muscarinic receptor subtype 2) (Homo sapiens, UniProt P08172)
# T1 construct: purchased Perkin-Elmer RBHM2M; host or cells: Chinese hamster ovary cells (CHO) membranes
# T1 sequence (P08172 1-466): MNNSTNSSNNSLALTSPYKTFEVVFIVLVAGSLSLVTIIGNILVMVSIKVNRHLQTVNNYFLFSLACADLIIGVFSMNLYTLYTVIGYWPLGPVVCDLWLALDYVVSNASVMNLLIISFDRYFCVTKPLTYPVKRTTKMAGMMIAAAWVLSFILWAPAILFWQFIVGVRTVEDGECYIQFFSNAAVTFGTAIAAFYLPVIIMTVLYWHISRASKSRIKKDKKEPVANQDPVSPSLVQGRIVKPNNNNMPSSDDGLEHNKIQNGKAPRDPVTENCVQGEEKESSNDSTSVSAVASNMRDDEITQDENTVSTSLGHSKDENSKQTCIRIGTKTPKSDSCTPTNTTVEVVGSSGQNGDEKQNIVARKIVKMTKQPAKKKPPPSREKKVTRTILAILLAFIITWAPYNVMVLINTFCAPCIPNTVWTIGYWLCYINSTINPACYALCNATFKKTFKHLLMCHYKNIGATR
# Test: hM2 receptor GTPγS binding
# Type: biochemical
# Conditions: CHO cell membranes expressing hM2; [35S]GTPγS binding; read-out: hM2 EC50
# Description: hM2 Receptor GTPγS Binding
# Membranes produced from Chinese hamster ovary cells (CHO) expressing the cloned human M2 receptor (human Muscarinic receptor subtype 2, gene bank access NM_000739), are obtained from Perkin-Elmer (RBHM2M). The membranes are thawed at 37° C., passed 3 times through a 23-gauge blunt-end needle, diluted in the GTPγS binding buffer (50 mM Hepes, 20 mM NaOH, 100 mM NaCl, 1 mM EDTA, 5 mM MgCl2, pH 7.4, 100 μM DTT). The EC50, IC50 and Emax of the compounds of the invention are evaluated from 10-point dose-response curves (three fold concentration range) done in 60 μl in 384-well non-specific binding surface plate (Corning). Ten microliters from the dose-response curves plate (5× concentration) are transferred to another 384 well plate containing 25 μl of the following: 5 μg of hM2 membranes, 500 μg of Flashblue beads (Perkin-Elmer) and GDP 25 μM. An additional 15 μl containing 3.3× (60,000 dpm) of GTPγ^35S (0.4 nM final) are added to the wells resulting in a total well volume of 50 μl. Basal and maximal stimulated [^35S]GTPγS binding are determined in absence and presence of 30 μM final of acetylcholine agonist. The membranes/beads mix are pre-incubated for 15 minutes at room temperature with 25 μM GDP prior to distribution in plates (12.5 μM final). The reversal of acetylcholine-induced stimulation (2 μM final) of [^35S]GTPγS binding is used to assay the antagonist properties (IC50) of the compounds. The plates are incubated for 60 minutes at room temperature then centrifuged at 400 rpm for 5 minutes. The radioactivity (cpm) is counted in a Trilux (Perkin-Elmer).
# Values of EC50, IC50 and Emax are obtained using sigmoidal fits of a non-linear curve-fitting program (XLfit version 4.2.2 Excel add-in version 4.2.2 build 18 math 1Q version 2.1.2 build 18) of percent stimulated [^35S]GTPγS binding vs. log(molar ligand). All pEC50 and plC50 values are reported as arithmetic means ±standard error of mean of ‘n’ independent experiments.
row,SMILES,EC50 [nM]
1,"CCOC(=O)N1CCC(C)(N2CCC(N3C(=O)Cc4ccc(F)cc43)CC2)C1 (single isomer, unassigned) [Example 74, ethyl 3-(4-(6-fluoro-2-oxoindolin-1-yl)piperidin-1-yl)-3-methylpyrrolidine-1-carboxylate]",1340
2,"CCOC(=O)N1CCC(C)(N2CCC(N3C(=O)Cc4ccc(F)cc43)CC2)C1 (single isomer, unassigned) [Example 75, ethyl 3-(4-(6-fluoro-2-oxoindolin-1-yl)piperidin-1-yl)-3-methylpyrrolidine-1-carboxylate]",2620
3,"COC(=O)N1CCC(C)(N2CCC(N3C(=O)Cc4ccc(F)cc43)CC2)C1 (single isomer, unassigned) [Example 76, methyl 3-(4-(6-fluoro-2-oxoindolin-1-yl)piperidin-1-yl)-3-methylpyrrolidine-1-carboxylate]",3500
4,"CCOC(=O)N1CCC(C)(N2CCC(N3C(=O)Cc4cc(F)ccc43)CC2)C1 (single isomer, unassigned) [Example 79, ethyl 3-(4-(5-fluoro-2-oxoindolin-1-yl)piperidin-1-yl)-3-methylpyrrolidine-1-carboxylate]",1130
5,"CCOC(=O)N1CCC(C)(N2CCC(N3C(=O)Cc4cc(F)ccc43)CC2)C1 (single isomer, unassigned) [Example 80, ethyl 3-(4-(5-fluoro-2-oxoindolin-1-yl)piperidin-1-yl)-3-methylpyrrolidine-1-carboxylate]",3260
6,"CCOC(=O)N1CCC(C)(N2CCC(N3C(=O)Cc4cc(F)c(C)cc43)CC2)C1 (single isomer, unassigned) [Example 81, ethyl 3-(4-(5-fluoro-6-methyl-2-oxoindolin-1-yl)piperidin-1-yl)-3-methylpyrrolidine-1-carboxylate]",1670
7,"CCOC(=O)N1CCC(C)(N2CCC(N3C(=O)Cc4cc(F)c(C)cc43)CC2)C1 (single isomer, unassigned) [Example 82, ethyl 3-(4-(5-fluoro-6-methyl-2-oxoindolin-1-yl)piperidin-1-yl)-3-methylpyrrolidine-1-carboxylate]",270
8,"CCOC(=O)N1CCC(C)(N2CCC(n3c(=O)[nH]c4ccccc43)CC2)C1 (stereo not shown) [Example 1, ethyl 3-methyl-3-(4-(2-oxo-2,3-dihydro-1H-benzo[d]imidazol-1-yl)piperidin-1-yl)pyrrolidine-1-carboxylate]",498
9,"CCNC(=O)N1CCC(C)(N2CCC(n3c(=O)[nH]c4ccccc43)CC2)C1 (stereo not shown) [Example 5, N-ethyl-3-methyl-3-(4-(2-oxo-2,3-dihydro-1H-benzo[d]imidazol-1-yl)piperidin-1-yl)pyrrolidine-1-carboxamide]",5130
10,"COC(=O)N1CCC(C)(N2CCC(n3c(=O)[nH]c4cc(F)ccc43)CC2)C1 (stereo not shown) [Example 8, methyl 3-(4-(5-fluoro-2-oxo-2,3-dihydro-1H-benzo[d]imidazol-1-yl)piperidin-1-yl)-3-methylpyrrolidine-1-carboxylate]",1280
11,"CC1(N2CCC(n3c(=O)[nH]c4cc(F)ccc43)CC2)CCN(C(=O)OCCF)C1 (stereo not shown) [Example 10, 2-fluoroethyl 3-(4-(5-fluoro-2-oxo-2,3-dihydro-1H-benzo[d]imidazol-1-yl)piperidin-1-yl)-3-methylpyrrolidine-1-carboxylate]",2140
12,"C#CCOC(=O)N1CCC(C)(N2CCC(n3c(=O)[nH]c4cc(F)ccc43)CC2)C1 (stereo not shown) [Example 11, prop-2-ynyl 3-(4-(5-fluoro-2-oxo-2,3-dihydro-1H-benzo[d]imidazol-1-yl)piperidin-1-yl)-3-methylpyrrolidine-1-carboxylate]",149
13,"CCOC(=O)N1CCC(C)(N2CCC(n3c(=O)[nH]c4ccc(C)cc43)CC2)C1 (stereo not shown) [Example 16, ethyl 3-methyl-3-(4-(6-methyl-2-oxo-2,3-dihydro-1H-benzo[d]imidazol-1-yl)piperidin-1-yl)pyrrolidine-1-carboxylate]",418
14,"COC(=O)N1CCC(C)(N2CCC(n3c(=O)[nH]c4ccc(C)cc43)CC2)C1 (stereo not shown) [Example 17, methyl 3-methyl-3-(4-(6-methyl-2-oxo-2,3-dihydro-1H-benzo[d]imidazol-1-yl)piperidin-1-yl)pyrrolidine-1-carboxylate]",709

# Same assay, conditions: hM2 EC50 (nM), CHO cell membranes expressing hM2; [35S]GTPγS binding
row,SMILES,EC50 [nM]
1,"COC(=O)N1CCC(C)(N2CCC(N3C(=O)Cc4cc(F)c(C)cc43)CC2)C1 (single isomer, unassigned) [Example 83, methyl 3-(4-(5-fluoro-6-methyl-2-oxoindolin-1-yl)piperidin-1-yl)-3-methylpyrrolidine-1-carboxylate]",2840
2,"COC(=O)N1CCC(C)(N2CCC(N3C(=O)Cc4cc(F)c(C)cc43)CC2)C1 (single isomer, unassigned) [Example 84, methyl 3-(4-(5-fluoro-6-methyl-2-oxoindolin-1-yl)piperidin-1-yl)-3-methylpyrrolidine-1-carboxylate]",684
